Measured values reported in the NIST ThermoML archive (doi:10.1021/acs.jced.7b00181).
± gives the expanded uncertainty stated by the source.

Details: Liquid, Concentric cylinders viscometry

CCCCCCCCCCCCCC[P+](CCCCCC)(CCCCCC)CCCCCC.FC(F)(F)C(F)(F)[P-](F)(F)(F)(C(F)(F)C(F)(F)F)C(F)(F)C(F)(F)F
viscosity (298.15 K, 10000 kPa): 413 ± 32 mPa·s | viscosity (298.15 K, 50000 kPa): 913 ± 75 mPa·s | viscosity (298.15 K, 75000 kPa): 1417 ± 120 mPa·s | viscosity (313.15 K, 10000 kPa): 189 ± 15 mPa·s | viscosity (313.15 K, 50000 kPa): 401 ± 33 mPa·s | viscosity (313.15 K, 75000 kPa): 615 ± 52 mPa·s | viscosity (323.15 K, 10000 kPa): 114 ± 9 mPa·s | viscosity (323.15 K, 50000 kPa): 223 ± 17 mPa·s | viscosity (323.15 K, 75000 kPa): 364 ± 29 mPa·s | viscosity (333.15 K, 10000 kPa): 78.1 ± 5.7 mPa·s | viscosity (333.15 K, 50000 kPa): 159 ± 12 mPa·s | viscosity (333.15 K, 75000 kPa): 232 ± 18 mPa·s | viscosity (343.15 K, 10000 kPa): 53.5 ± 3.9 mPa·s | viscosity (343.15 K, 50000 kPa): 112 ± 8 mPa·s | viscosity (343.15 K, 75000 kPa): 162 ± 12 mPa·s | viscosity (353.15 K, 10000 kPa): 37.9 ± 2.8 mPa·s | viscosity (353.15 K, 50000 kPa): 76.3 ± 5.6 mPa·s | viscosity (353.15 K, 75000 kPa): 109 ± 8 mPa·s

CCCCCCOS(=O)(=O)[O-].CC[n+]1ccn(C)c1 [3-ethyl-1-methyl-1H-imidazolium hexyl sulfate]
viscosity (298.15 K, 10000 kPa): 354 ± 27 mPa·s | viscosity (298.15 K, 50000 kPa): 571 ± 45 mPa·s | viscosity (298.15 K, 75000 kPa): 737 ± 59 mPa·s | viscosity (313.15 K, 10000 kPa): 154 ± 12 mPa·s | viscosity (313.15 K, 50000 kPa): 238 ± 19 mPa·s | viscosity (313.15 K, 75000 kPa): 304 ± 25 mPa·s | viscosity (323.15 K, 10000 kPa): 94 ± 7 mPa·s | viscosity (323.15 K, 50000 kPa): 142 ± 11 mPa·s | viscosity (323.15 K, 75000 kPa): 186 ± 14 mPa·s | viscosity (333.15 K, 10000 kPa): 63.8 ± 4.6 mPa·s | viscosity (333.15 K, 50000 kPa): 94.8 ± 6.9 mPa·s | viscosity (333.15 K, 75000 kPa): 120 ± 9 mPa·s | viscosity (343.15 K, 10000 kPa): 44.5 ± 3.2 mPa·s | viscosity (343.15 K, 50000 kPa): 65.9 ± 4.8 mPa·s | viscosity (343.15 K, 75000 kPa): 82.1 ± 6 mPa·s | viscosity (353.15 K, 10000 kPa): 31.4 ± 2.3 mPa·s | viscosity (353.15 K, 50000 kPa): 46 ± 3.4 mPa·s | viscosity (353.15 K, 75000 kPa): 56.9 ± 4.2 mPa·s
